Reference: ChEMBL document CHEMBL4316596, “Antimicrobial Peptides with High Proteolytic Resistance for Combating Gram-Negative Bacteria” (J Med Chem, 2019)
Blank lines part the entries; values can stand above or below the substance they belong to.

Key:
[1] = tested on: Escherichia coli; test: Antimicrobial activity against Escherichia coli ATCC 25922 after 24 hrs by NCCLS-protocol based assay; format: functional; settings: ATCC 25922, 24 h
[2] = tested on: Escherichia coli; test: Bactericidal activity against Escherichia coli ATCC 25922 incubated for 4 hrs followed by culture spread on agar plates and cultured overnight in presence of 50% serum albumin; format: functional; settings: ATCC 25922, 4 h, read-out: MBC>99.9
[3] = tested on: Escherichia coli; test: Antimicrobial activity against Escherichia coli 078 after 24 hrs by NCCLS-protocol based assay; format: functional; settings: Escherichia coli, 078, 24 h
[4] = tested on: Escherichia coli; test: Bactericidal activity against Escherichia coli K99 incubated for 4 hrs followed by culture spread on agar plates and cultured overnight; format: functional; settings: K99, 4 h, read-out: MBC>99.9
[5] = tested on: Escherichia coli; test: Bactericidal activity against Escherichia coli UB1005 incubated for 4 hrs followed by culture spread on agar plates and cultured overnight; format: functional; settings: UB1005, 4 h, read-out: MBC>99.9
[6] = tested on: Escherichia coli; test: Bactericidal activity against Escherichia coli K88 incubated for 4 hrs followed by culture spread on agar plates and cultured overnight; format: functional; settings: K88, 4 h, read-out: MBC>99.9
[7] = tested on: Salmonella typhimurium; test: Bactericidal activity against Salmonella typhimurium ATCC 14028 incubated for 4 hrs followed by culture spread on agar plates and cultured overnight; format: functional, Salmonella enterica subsp. enterica serovar Typhimurium; settings: Salmonella enterica, ATCC 14028, 4 h; read-out: MBC>99.9
[8] = tested on: Pseudomonas aeruginosa; test: Bactericidal activity against Pseudomonas aeruginosa 26305 clinical isolates incubated for 4 hrs followed by culture spread on agar plates and cultured overnight; format: functional; settings: Pseudomonas aeruginosa, 26305, 4 h; read-out: MBC>99.9
[9] = tested on: Escherichia coli; test: Bactericidal activity against Escherichia coli ATCC 25922 incubated for 4 hrs followed by culture spread on agar plates and cultured overnight in presence of NaCl; format: functional; settings: ATCC 25922, 4 h, read-out: MBC>99.9
[10] = tested on: Pseudomonas aeruginosa; test: Antimicrobial activity against Pseudomonas aeruginosa 25349 clinical isolates after 24 hrs by NCCLS-protocol based assay; format: functional; settings: Pseudomonas aeruginosa, 25349, 24 h
[11] = tested on: Pseudomonas aeruginosa; test: Bactericidal activity against Pseudomonas aeruginosa PAO1 incubated for 4 hrs followed by culture spread on agar plates and cultured overnight; format: functional; settings: PAO1, 4 h, read-out: MBC>99.9
[12] = Bactericidal activity against Salmonella pullorum C7913 incubated for 4 hrs followed by culture spread on agar plates and cultured overnight; format: functional, Salmonella enterica subsp. enterica serovar Pullorum; settings: Salmonella enterica, C7913, 4 h; read-out: MBC>99.9
[13] = tested on: Escherichia coli; test: Antimicrobial activity against Escherichia coli UB1005 after 24 hrs by NCCLS-protocol based assay; format: functional; settings: UB1005, 24 h
[14] = Antimicrobial activity against Salmonella pullorum C7913 after 24 hrs by NCCLS-protocol based assay; format: functional, Salmonella enterica subsp. enterica serovar Pullorum; settings: Salmonella enterica, C7913, 24 h
[15] = tested on: Escherichia coli; test: Antimicrobial activity against Escherichia coli K99 after 24 hrs by NCCLS-protocol based assay; format: functional; settings: K99, 24 h
[16] = tested on: Pseudomonas aeruginosa; test: Bactericidal activity against Pseudomonas aeruginosa ATCC 27853 incubated for 4 hrs followed by culture spread on agar plates and cultured overnight; format: functional; settings: ATCC 27853, 4 h, read-out: MBC>99.9
[17] = tested on: Escherichia coli; test: Bactericidal activity against Escherichia coli ATCC 25922 incubated for 4 hrs followed by culture spread on agar plates and cultured overnight in presence of 25% serum albumin; format: functional; settings: ATCC 25922, 4 h, read-out: MBC>99.9
[18] = tested on: Klebsiella pneumoniae; test: Antimicrobial activity against Klebsiella pneumoniae after 24 hrs by NCCLS-protocol based assay; format: functional
[19] = tested on: Pseudomonas aeruginosa; test: Antimicrobial activity against Pseudomonas aeruginosa PAO1 after 24 hrs by NCCLS-protocol based assay; format: functional; settings: PAO1, 24 h
[20] = tested on: Pseudomonas aeruginosa; test: Bactericidal activity against Pseudomonas aeruginosa CICC 21630 clinical isolates incubated for 4 hrs followed by culture spread on agar plates and cultured overnight; format: functional; settings: CICC 21630, 4 h, read-out: MBC>99.9
[21] = tested on: Pseudomonas aeruginosa; test: Antimicrobial activity against Pseudomonas aeruginosa CICC 21625 clinical isolates after 24 hrs by NCCLS-protocol based assay; format: functional; settings: CICC 21625, 24 h
[22] = tested on: Klebsiella pneumoniae; test: Bactericidal activity against Klebsiella pneumoniae incubated for 4 hrs followed by culture spread on agar plates and cultured overnight; format: functional; settings: read-out: MBC>99.9
[23] = tested on: Pseudomonas aeruginosa; test: Antimicrobial activity against Pseudomonas aeruginosa CICC 21630 clinical isolates after 24 hrs by NCCLS-protocol based assay; format: functional; settings: CICC 21630, 24 h
[24] = tested on: Escherichia coli; test: Bactericidal activity against Escherichia coli ATCC 25922 incubated for 4 hrs followed by culture spread on agar plates and cultured overnight in presence of 12.5% serum albumin; format: functional; settings: ATCC 25922, 4 h, read-out: MBC>99.9
[25] = tested on: Pseudomonas aeruginosa; test: Antimicrobial activity against Pseudomonas aeruginosa ATCC 27853 after 24 hrs by NCCLS-protocol based assay; format: functional; settings: ATCC 27853, 24 h
[26] = tested on: Escherichia coli; test: Bactericidal activity against Escherichia coli ATCC 25922 incubated for 4 hrs followed by culture spread on agar plates and cultured overnight in presence of CaCl2; format: functional; settings: ATCC 25922, 4 h, read-out: MBC>99.9
[27] = tested on: Pseudomonas aeruginosa; test: Bactericidal activity against Pseudomonas aeruginosa 25349 clinical isolates incubated for 4 hrs followed by culture spread on agar plates and cultured overnight; format: functional; settings: Pseudomonas aeruginosa, 25349, 4 h; read-out: MBC>99.9
[28] = tested on: Escherichia coli; test: Bactericidal activity against Escherichia coli ATCC 25922 incubated for 4 hrs followed by culture spread on agar plates and cultured overnight in presence of NH4Cl; format: functional; settings: ATCC 25922, 4 h, read-out: MBC>99.9
[29] = tested on: Pseudomonas aeruginosa; test: Bactericidal activity against Pseudomonas aeruginosa CICC 21625 clinical isolates incubated for 4 hrs followed by culture spread on agar plates and cultured overnight; format: functional; settings: CICC 21625, 4 h, read-out: MBC>99.9
[30] = tested on: Salmonella typhimurium; test: Antimicrobial activity against Salmonella typhimurium C7731 after 24 hrs by NCCLS-protocol based assay; format: functional, Salmonella enterica subsp. enterica serovar Typhimurium; settings: Salmonella enterica, C7731, 24 h
[31] = tested on: Pseudomonas aeruginosa; test: Antimicrobial activity against Pseudomonas aeruginosa 26305 clinical isolates after 24 hrs by NCCLS-protocol based assay; format: functional; settings: Pseudomonas aeruginosa, 26305, 24 h
[32] = tested on: Escherichia coli; test: Bactericidal activity against Escherichia coli 078 incubated for 4 hrs followed by culture spread on agar plates and cultured overnight; format: functional; settings: Escherichia coli, 078, 4 h; read-out: MBC>99.9
[33] = tested on: Salmonella typhimurium; test: Antimicrobial activity against Salmonella typhimurium ATCC 14028 after 24 hrs by NCCLS-protocol based assay; format: functional, Salmonella enterica subsp. enterica serovar Typhimurium; settings: Salmonella enterica, ATCC 14028, 24 h
[34] = tested on: Escherichia coli; test: Bactericidal activity against Escherichia coli ATCC 25922 incubated for 4 hrs followed by culture spread on agar plates and cultured overnight in presence of MgCl2; format: functional; settings: ATCC 25922, 4 h, read-out: MBC>99.9
[35] = tested on: Acinetobacter baumannii; test: Bactericidal activity against Acinetobacter baumannii incubated for 4 hrs followed by culture spread on agar plates and cultured overnight; format: functional; settings: read-out: MBC>99.9
[36] = tested on: Escherichia coli; test: Antimicrobial activity against Escherichia coli K88 after 24 hrs by NCCLS-protocol based assay; format: functional; settings: K88, 24 h
[37] = tested on: Escherichia coli; test: Bactericidal activity against Escherichia coli ATCC 25922 incubated for 4 hrs followed by culture spread on agar plates and cultured overnight; format: functional; settings: ATCC 25922, 4 h, read-out: MBC>99.9
[38] = tested on: Escherichia coli; test: Bactericidal activity against Escherichia coli ATCC 25922 incubated for 4 hrs followed by culture spread on agar plates and cultured overnight in presence of FeCl3; format: functional; settings: ATCC 25922, 4 h, read-out: MBC>99.9
[39] = tested on: Acinetobacter baumannii; test: Antimicrobial activity against Acinetobacter baumannii after 24 hrs by NCCLS-protocol based assay; format: functional
[40] = tested on: Escherichia coli; test: Bactericidal activity against Escherichia coli ATCC 25922 incubated for 4 hrs followed by culture spread on agar plates and cultured overnight in presence of KCl; format: functional; settings: ATCC 25922, 4 h, read-out: MBC>99.9
[41] = tested on: Salmonella typhimurium; test: Bactericidal activity against Salmonella typhimurium C7731 incubated for 4 hrs followed by culture spread on agar plates and cultured overnight; format: functional, Salmonella enterica subsp. enterica serovar Typhimurium; settings: Salmonella enterica, C7731, 4 h; read-out: MBC>99.9
[42] = tested on: Escherichia coli; test: Bactericidal activity against Escherichia coli ATCC 25922 incubated for 4 hrs followed by culture spread on agar plates and cultured overnight in presence of ZnCl2; format: functional; settings: ATCC 25922, 4 h, read-out: MBC>99.9

MIC95 [1]: 2 µM
MIC95 [3]: 2 µM
MIC95 [10]: > 64 µM
MIC95 [13]: 2 µM
MIC95 [14]: 4 µM
MIC95 [15]: 2 µM
MIC95 [18]: 16 µM
MIC95 [19]: 8 µM
MIC95 [21]: > 64 µM
MIC95 [23]: > 64 µM
MIC95 [25]: 8 µM
MIC95 [30]: 4 µM
MIC95 [31]: > 64 µM
MIC95 [33]: 4 µM
MIC95 [36]: 1 µM
MIC95 [39]: 4 µM
Substance: H-IRPIIRPIIRPIIRPIIRPIIRPI-NH2
MBC [2]: 64 µM
MBC [4]: 4 µM
MBC [5]: 2 µM
MBC [6]: 1 µM
MBC [7]: 4 µM
MBC [8]: > 64 µM
MBC [9]: 32 µM
MBC [11]: 16 µM
MBC [12]: 8 µM
MBC [16]: 16 µM
MBC [17]: 32 µM
MBC [20]: > 64 µM
MBC [22]: 8 µM
MBC [24]: 16 µM
MBC [26]: > 128 µM
MBC [27]: > 64 µM
MBC [28]: 8 µM
MBC [29]: > 64 µM
MBC [32]: 2 µM
MBC [34]: 8 µM
MBC [35]: 8 µM
MBC [37]: 2 µM
MBC [38]: 8 µM
MBC [40]: 4 µM
MBC [41]: 4 µM
MBC [42]: 4 µM

MIC95 [1]: 2 µM
MIC95 [3]: 2 µM
MIC95 [10]: > 64 µM
MIC95 [13]: 2 µM
MIC95 [14]: 4 µM
MIC95 [15]: 1 µM
MIC95 [18]: 4 µM
MIC95 [19]: 4 µM
MIC95 [21]: > 64 µM
MIC95 [23]: > 64 µM
MIC95 [25]: 8 µM
MIC95 [30]: 64 µM
MIC95 [31]: > 64 µM
MIC95 [33]: 8 µM
MIC95 [36]: 2 µM
MIC95 [39]: 2 µM
Substance: H-IRPIIRPIIRPIIRPIIRPIIRPIIRPIIRPI-NH2
MBC [4]: 2 µM
MBC [5]: 2 µM
MBC [6]: 2 µM
MBC [7]: 16 µM
MBC [8]: > 64 µM
MBC [11]: 4 µM
MBC [12]: 4 µM
MBC [16]: 8 µM
MBC [20]: > 64 µM
MBC [22]: 8 µM
MBC [27]: > 64 µM
MBC [29]: > 64 µM
MBC [32]: 2 µM
MBC [35]: 4 µM
MBC [37]: 2 µM
MBC [41]: > 64 µM
